Assays:
[1] = test system: Mushroom-derived tyrosinase; assay: Tyrosinase inhibitory effect; type: biochemical; settings: 1 mM L-tyrosin, pH 6.5, 25° C., 30 minutes, OD492; positive control kojic acid; FIGS. 3 and 4
Description: Mushroom-derived tyrosinase was sued as an enzyme source in the present experiment. Tyrosinase activities were assayed according to a slightly-modified conventionally known method (Life Sci., 1999, 65, 241-246). In detail, 20 μl of a mushroom-derived tyrosinase (1000 units) aqueous solution was added to 96-well microplate (Nunc, Denmark) to prepare 200 μl of the total volume of assay mixture containing 1 mM L-tyrosin solution and 50 mM phosphate buffer solution (pH 6.5). The assay mixture was cultured at a temperature of 25° C. for 30 minutes.

PPAR gamma-LBD = target: T1, PPAR gamma-LBD (Homo sapiens, UniProt P37231); assay: PPAR assay, PPARγ; type: binding; settings: sample final concentration 100 μM; positive control rosiglitazone; FIGS. 7 and 8
T1 sequence (P37231 238-503 limits assumed): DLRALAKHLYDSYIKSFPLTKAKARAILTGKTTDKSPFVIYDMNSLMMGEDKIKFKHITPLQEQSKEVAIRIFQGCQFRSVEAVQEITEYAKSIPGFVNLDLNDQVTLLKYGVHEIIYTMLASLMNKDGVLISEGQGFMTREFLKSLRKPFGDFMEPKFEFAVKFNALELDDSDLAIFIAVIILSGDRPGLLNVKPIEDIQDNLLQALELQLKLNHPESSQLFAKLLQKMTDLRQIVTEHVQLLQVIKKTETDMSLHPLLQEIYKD

PPAR alpha-LBD = target: T2, PPAR alpha-LBD (Homo sapiens, UniProt Q07869); assay: PPAR assay, PPARα; settings: for PPARα activation (competitive activation rate), compared with fenofibrate: sample final concentration 100 μM, positive control fenofibrate, FIGS. 5 and 6; for simultaneous activation of PPARα and PPARγ: summary of the PPARα and PPARγ assays, sample 100 μM
T2 sequence (Q07869 239-466 limits assumed): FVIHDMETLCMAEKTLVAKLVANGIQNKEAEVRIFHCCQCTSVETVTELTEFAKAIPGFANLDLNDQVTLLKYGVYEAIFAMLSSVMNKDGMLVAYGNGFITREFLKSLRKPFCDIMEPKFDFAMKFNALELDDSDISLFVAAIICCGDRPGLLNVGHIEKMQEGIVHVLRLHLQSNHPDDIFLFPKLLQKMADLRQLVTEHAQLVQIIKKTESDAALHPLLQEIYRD

[2] = test system: YPEN-1 cells (rat prostatic endothelial cell line); assay: In vitro ROS scavenging activity assay (DCFDA); type: cell-based; settings: cells pre-treated with 50 μM SIN-1 for 1 hour; DCFDA fluorescence; positive control trolox; FIGS. 1 and 2
Description: YPEN-1 cells (rat prostatic endothelial cell line) was obtained from American type culture collection (ATCC, Manassas, Va., USA), and the cells were cultured by using a dulbecco's modified eagle medium (DMEM, Nissui, Tokyo, Japan) containing 2 mM L-glutamine, […], 2.5 mg/L amphotericin B, and 5% inactivated fetal bovine serum (FBS). Also, the cells were maintained at a temperature of 37° C. in a humid atmosphere-like condition containing 5% CO2 and 95% air. […] The cells were sub-cultured in 100 mm plastic flask (Corning Co., New York, USA) every two days to maintain the cell line.
2′,7′-dichlorodihydrofluorescein diacetate (DCFDA) assay method according to a conventionally known method (Chem Res Toxicol. 5: 227-231, 1992) was used. In detail, 12.5 mM DCFDA dissolved in 99.9% ethanol and 600 U/ml esterase dissolved in tertiary distilled water were stored as a stock solution at a temperature of −20° C., and a 2′,7′-dichlorodihydrofluorescein (DCFH) solution prepared by mixing 10 mM DCFDA and 6 U/ml esterase was cultured at a temperature of 22° C. for 20 minutes, and then, refrigerated in a dark place before use. […] Vascular endothelial cells that were pre-treated with 50 μM 3-morpholinosydnonimine hydrochloride (SIN-1) for 1 hour were used as a reactive oxygen generation source.

melting point [°C] | simultaneous activation of PPARα and PPARγ (PPAR alpha-LBD) | SMILES | tyrosinase inhibitory activities, compared with kojic acid [1] | PPARγ activation (competitive activation rate), compared with rosiglitazone (PPAR gamma-LBD) | PPARα activation (competitive activation rate), compared with fenofibrate (PPAR alpha-LBD) | scavenging effects on ROS generated by vascular endothelial cells, compared with trolox [2]
137.7 to 139.2 |  | COc1ccc(C2N[C@H](C(=O)O)CS2)c(OC)c1 (mixture of isomers) [Compound 9, (2R/S,4R)-2-(2,4-dimethoxyphenyl)thiazolidine-4-carboxylic acid] | better tyrosinase inhibitory activities than a kojic acid |  |  | 
 | simultaneously activates PPARα and PPARγ | CC(C)(Oc1ccc(-c2nc3cc(Cl)ccc3s2)cc1)C(=O)O [Compound 99, 2-(4-(5-chlorobenzo[d]thiazol-2-yl)phenoxy)-2-methylpropanoic acid] | better tyrosinase inhibitory activities than a kojic acid | very excellent PPARγ activation agent compared to rosiglitazone | very excellent PPARα activation agent compared to fenofibrate | 
259.3 to 263.1 |  | Oc1ccc(-c2nc3cc(Cl)ccc3s2)cc1 [Compound 82, 4-(5-chlorobenzo[d]thiazol-2-yl)phenol] | better tyrosinase inhibitory activities than a kojic acid |  |  | 
 | simultaneously activates PPARα and PPARγ | COc1cc(-c2nc3ccccc3[nH]2)cc(OC)c1O [Compound 55, 4-(1H-benzo[d]imidazol-2-yl)-2,6-dimethoxyphenol] | better tyrosinase inhibitory activities than a kojic acid | very excellent PPARγ activation agent compared to rosiglitazone | very excellent PPARα activation agent compared to fenofibrate | 
236.2 to 238.2 |  | Oc1ccc(-c2nc3cc(C(F)(F)F)ccc3s2)c(O)c1 [Compound 30, 4-(5-(trifluoromethyl)benzo[d]thiazol-2-yl)benzene-1,3-diol] | better tyrosinase inhibitory activities than a kojic acid |  |  | 
 | simultaneously activates PPARα and PPARγ | Oc1ccc(-c2nc3ccccc3s2)cc1 [Compound 13, 4-(benzo[d]thiazol-2-yl)phenol] | better tyrosinase inhibitory activities than a kojic acid | very excellent PPARγ activation agent compared to rosiglitazone | very excellent PPARα activation agent compared to fenofibrate | 
127.4 to 129.1 |  | Oc1ccc(-c2nc3cc(Cl)ccc3s2)cc1O [Compound 83, 4-(5-chlorobenzo[d]thiazol-2-yl)benzene-1,2-diol] | better tyrosinase inhibitory activities than a kojic acid |  |  | as high scavenging effects on ROS generated by vascular endothelial cells as trolox
155.8 to 158.6 | simultaneously activates PPARα and PPARγ | COc1cc(C2Nc3cc(Cl)ccc3S2)cc(OC)c1O (stereo not shown) [Compound 94, 4-(5-chloro-2,3-dihydrobenzo[d]thiazol-2-yl)-2,6-dimethoxyphenol] | better tyrosinase inhibitory activities than a kojic acid | very excellent PPARγ activation agent compared to rosiglitazone | very excellent PPARα activation agent compared to fenofibrate | as high scavenging effects on ROS generated by vascular endothelial cells as trolox

SMILES | melting point [°C] | simultaneous activation of PPARα and PPARγ (PPAR alpha-LBD) | tyrosinase inhibitory activities, compared with kojic acid [1] | PPARγ activation (competitive activation rate), compared with rosiglitazone (PPAR gamma-LBD) | PPARα activation (competitive activation rate), compared with fenofibrate (PPAR alpha-LBD) | scavenging effects on ROS generated by vascular endothelial cells, compared with trolox [2]
Oc1ccc(-c2nc3ccccc3[nH]2)c(O)c1 [Compound 45, 4-(1H-benzo[d]imidazol-2-yl)benzene-1,3-diol] |  | simultaneously activates PPARα and PPARγ | better tyrosinase inhibitory activities than a kojic acid | very excellent PPARγ activation agent compared to rosiglitazone | very excellent PPARα activation agent compared to fenofibrate | 

From US8889881B2, “Compound having skin-whitening, anti-oxidizing and PPAR activities and medical use therefor” (Pusan National University Industry —University Cooperation …, priority 2011, dated 2014)
